The text below walks through data of PubChem BioAssay (NCI).

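Grown in 96-well plates, cells were treated for 48 hours with each compound at five concentrations. Insufficient inhibition: endpoint recorded as highest concentration tested. GI50: concentration for 50% inhibition of growth. The concentration for full growth arrest is given as TGI.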

Some test systems named below: TK-10 renal; DMS 114 small cell lung; HT29 colon; NCI-H226 lung; HOP-18 NSCLC; MOLT-4 leukemia; A549 NSCLC; SF-295 CNS; A498 renal; SK-MEL-2 melanoma.
Common to all, as to experiment: growth of human tumour cells (NCI), 48 h

For `CC(CC(=O)N1C(=O)C(C)(C)[C@@H](O)[C@H]1CC(C)C(Cl)(Cl)Cl)C(Cl)(Cl)Cl` (some centres not stated), the TGI in the assay on TK-10 renal, in the assay on DMS 114 small cell lung, in the assay with HT29 colon, with NCI-H226 lung, with HOP-18 NSCLC and in the assay with MOLT-4 leukemia was > 100 µM throughout. Further, the TGI with A549 NSCLC, with SF-295 CNS and in the assay on A498 renal was > 100 µM each time.

In the case of `Cc1c2ccn(O)cc2c(C)c2c1nc1ccccc12`, the TGI with TK-10 renal is > 66.1 µM; in the assay on DMS 114 small cell lung, 47.1 µM; in the assay on HT29 colon, > 100 µM; in the assay on NCI-H226 lung, 29 µM; in the assay on HOP-18 NSCLC it was 99.4 µM; in the assay with SK-MEL-2 melanoma, > 50 µM. Further, the TGI in the assay with MOLT-4 leukemia is 16.8 µM; in the assay on A549 NSCLC, > 100 µM; with SF-295 CNS it was 23.4 µM; in the assay on A498 renal, 55.6 µM.

Turning to `O=S(=O)([O-])c1ccc(N=Cc2ccccc2[O-])cc1.O=S(=O)([O-])c1ccc(N=Cc2ccccc2[O-])cc1.[Co+2]`, the GI50 in the assay on TK-10 renal is > 100 µM; with DMS 114 small cell lung, 28.3 µM; in the assay on NCI-H226 lung, > 100 µM; in the assay on HOP-18 NSCLC, 85.5 µM; in the assay on SK-MEL-2 melanoma, > 100 µM; in the assay on MOLT-4 leukemia it was 21.7 µM. Besides, the GI50 with A549 NSCLC and in the assay with SF-295 CNS was > 100 µM each time. The TGI in the assay with TK-10 renal, in the assay with DMS 114 small cell lung, in the assay on NCI-H226 lung, in the assay with HOP-18 NSCLC, in the assay with SK-MEL-2 melanoma and with MOLT-4 leukemia was > 100 µM in each case. Further, the TGI in the assay on A549 NSCLC and in the assay on SF-295 CNS was > 100 µM each time.

Regarding `CN1CN(C2OC(CO)C(O)C2O)c2nc(N)[nH]c(=O)c21` (configuration not stated), the TGI in the assay on TK-10 renal, with DMS 114 small cell lung, in the assay with HT29 colon, in the assay with NCI-H226 lung, with HOP-18 NSCLC and in the assay with SK-MEL-2 melanoma was > 100 µM in each case. Besides, the TGI with MOLT-4 leukemia, in the assay with A549 NSCLC, in the assay with SF-295 CNS and in the assay with A498 renal was > 100 µM throughout.

Take `CCC[CH2][Sn]([CH2]CCC)([O]c1cccc2cccnc12)[O]c1cccc2cccnc12`: the GI50 with TK-10 renal is 0.492 µM; in the assay on DMS 114 small cell lung, 0.135 µM; with HT29 colon it was 0.484 µM; in the assay on HOP-18 NSCLC it was 0.396 µM; in the assay on MOLT-4 leukemia it was 0.159 µM; in the assay on A549 NSCLC, 1.26 µM. In addition, the results for the GI50 in the assay on SF-295 CNS and with A498 renal were 0.247 µM and 1.75 µM, respectively. Moreover, the TGI in the assay with TK-10 renal was 1.66 µM; with DMS 114 small cell lung it was 0.306 µM; with HT29 colon, 1.72 µM; with HOP-18 NSCLC, 0.765 µM; with MOLT-4 leukemia, 0.377 µM; with A549 NSCLC, 2.92 µM. The results for the TGI in the assay on SF-295 CNS and in the assay on A498 renal were 0.612 µM and 3.31 µM, respectively.

For `BrC(Br)=C1C(=C(Br)Br)C(Br)C1Br` (configuration not stated), the TGI with TK-10 renal was 1.93 µM; in the assay with DMS 114 small cell lung, 0.552 µM; in the assay on HT29 colon it was 1.49 µM; in the assay with NCI-H226 lung it was 0.67 µM; in the assay on HOP-18 NSCLC, 9.19 µM; in the assay with SK-MEL-2 melanoma it was 7.7 µM. The TGI in the assay on A549 NSCLC came to 3 µM; with SF-295 CNS it was 2.32 µM; with A498 renal it was 3.38 µM.

As for `CCCCCOCC(O)CO` (configuration not stated), the TGI in the assay with TK-10 renal, in the assay on DMS 114 small cell lung, with NCI-H226 lung, with HOP-18 NSCLC, with SK-MEL-2 melanoma and in the assay on A549 NSCLC was > 100 µM throughout. Moreover, the TGI in the assay on SF-295 CNS and with A498 renal was > 100 µM throughout.

As for `CC(C)N(O)C(=N)c1ccccc1`, the TGI in the assay on TK-10 renal was > 100 µM; in the assay on DMS 114 small cell lung, > 100 µM; in the assay with HT29 colon, > 100 µM; in the assay on NCI-H226 lung, > 100 µM; in the assay with HOP-18 NSCLC, 0.849 µM; with SK-MEL-2 melanoma, > 100 µM. In addition, the TGI with A549 NSCLC and in the assay on SF-295 CNS was > 100 µM throughout.

Take `C[C@]12CCC(=O)C(OC(=O)c3ccc([N+](=O)[O-])cc3)=C1CCC2=O`: the TGI in the assay with TK-10 renal, in the assay with DMS 114 small cell lung, in the assay on HT29 colon, with NCI-H226 lung, in the assay with HOP-18 NSCLC and with MOLT-4 leukemia was > 100 µM in each case. In addition, the TGI in the assay with A549 NSCLC, in the assay with SF-295 CNS and with A498 renal was > 100 µM each time.

Consider `O=C(O)C[C@@H](Cl)[C@H](NC(=O)OCc1ccccc1)C(=O)O`, for which the TGI in the assay on TK-10 renal, with DMS 114 small cell lung, in the assay on HT29 colon, with NCI-H226 lung, in the assay on HOP-18 NSCLC and in the assay on SK-MEL-2 melanoma was > 100 µM each time. Also, the TGI in the assay on MOLT-4 leukemia, in the assay with A549 NSCLC, in the assay with SF-295 CNS and in the assay with A498 renal was > 100 µM each time.

With `COC(=O)c1ccccc1N(C(=O)c1ccccc1)c1ccccc1C`, the TGI in the assay with TK-10 renal, in the assay with DMS 114 small cell lung, with HT29 colon, with NCI-H226 lung, in the assay with HOP-18 NSCLC and in the assay with SK-MEL-2 melanoma was > 100 µM in each case. Also, the TGI is 54.6 µM in the assay with MOLT-4 leukemia, > 100 µM in the assay with A549 NSCLC, > 100 µM in the assay with SF-295 CNS and 80.1 µM in the assay with A498 renal.

As to `N#CC12CCC1C1CCCCC12N1CCSCC1` (configuration not stated), the TGI in the assay with DMS 114 small cell lung, in the assay on HT29 colon, in the assay on HOP-18 NSCLC, in the assay on SK-MEL-2 melanoma, in the assay with MOLT-4 leukemia and in the assay on A549 NSCLC was > 100 µM in each case. The TGI in the assay with SF-295 CNS and in the assay on A498 renal was > 100 µM each time.

Turning to `COc1cc(OC)c(C(=O)c2cccs2)cc1N`, the TGI was > 100 µM with TK-10 renal; > 100 µM in the assay on DMS 114 small cell lung; > 100 µM with HT29 colon; 86.8 µM in the assay on HOP-18 NSCLC; > 100 µM in the assay on SK-MEL-2 melanoma; > 100 µM in the assay on MOLT-4 leukemia. Besides, the TGI with A549 NSCLC, with SF-295 CNS and with A498 renal was > 100 µM in each case.
